Source: article PMC8224038, “Anti-Leukemic Properties of Aplysinopsin Derivative EE-84 Alone and Combined to BH3 Mimetic A-1210477” (Marine Drugs, 2021)
Read-outs that look alike come from different tables or passages of the source.

Assays:
K562 cells [1] = experiment: Annexin V APC/PI staining quantified by FACS; format: cell-based, human
Text: (§2) The percentage of apoptotic cells was quantified as the fraction of cells showing fragmented nuclei, as assessed by fluorescence microscopy (Nikon, Tokyo, Japan) after staining with Hoechst 33342 (Sigma-Aldrich) and propidium iodide (Sigma-Aldrich). In addition, apoptosis was confirmed by Annexin V APC (Biolegend, 640919)/propidium iodide (BD Biosciences, 556547) staining and fluorescence-activated cell sorter (FACS) analysis according to the manufacturer protocol (BD Biosciences, 556547).

K562 cells [2] = experiment: Trypan blue exclusion test, viability; format: cell-based, human; settings: for viability of K562 cells: concentrations up to 50 µM, 24, 48, 72 h
Procedure: (§1) Cell proliferation and viability were assessed by the trypan blue exclusion method (Lonza), and viable cells were counted using a hematocytometer (Marienfeld, Lauda-Königshofen, Germany). Differential toxicity was calculated by comparing the viability of RPMI 1788 cells to the viability of cancer cells (normal/cancer cells). The difference in viability was expressed in terms of fold change.

K562IR cells = experiment: Trypan blue exclusion test, viability; format: cell-based; settings: Homo sapiens, A-1210477 20 µM, 24 h
Procedure: as §1

K562 cells [3] = experiment: Hoechst/PI staining by fluorescent microscopy; format: cell-based, human; settings: K562, 24 h, A-1210477 10 µM alone (Figure 7D)
Text: as §2

K562 cells [4] = experiment: Trypan blue exclusion test, proliferation (GI50); format: cell-based, human; settings: concentrations up to 50 µM; 24, 48, 72 h
Procedure: as §1

RPMI 1788 [5] = experiment: Trypan blue exclusion test, proliferation (GI50) in noncancerous cells; format: cell-based, human
Procedure: as §1

RPMI 1788 [6] = experiment: Trypan blue exclusion test, viability (IC50) in noncancerous cells; format: cell-based, human; settings: for IC50: read-out: IC50 (50% cell death)
Procedure: as §1

zebrafish embryos = experiment: Zebrafish toxicity; settings: 24 h exposure
Procedure: For toxicity assays, embryos were treated with 0.003% phenylthiourea (PTU) 14 h before the assay to remove pigmentation. Then, 2 h before the assay, the embryo’s shell was eliminated and then treated for up to 24 h with aplysinopsin compounds at indicated concentrations in 24-well plates. Viability and abnormal development were assessed after 24 h of treatment under light microscopy (Carl Zeiss Stereomicroscope DV4, Seoul, Korea). Pictures were taken by fixing embryos onto a glass slide with 3% methylcellulose (Sigma-Aldrich).

K562 cells [7] = experiment: Cell cycle analysis (PI, FACS); format: cell-based, human; settings: Celecoxib 40 μM
Procedure: Cells were collected and fixed in 70% ethanol. DNA was stained with propidium iodide (PI) solution (1 μg/mL, Sigma-Aldrich, St. Louis, MO, USA) in 1XPBS (Biosesang, Seongnam, Korea) for 30 min at 37 °C, supplemented with RNase A (100 μg/mL, Roche, Basel, Switzerland). Samples were analyzed by flow cytometry using the FACSCalibur^TM system, Becton Dickinson (BD) Biosciences (San Jose, CA, USA). Data were recorded statistically (10,000 events/sample) using the Cell Quest software (BD Biosciences) and analyzed using Flow-Jo 8.8.5 software (Tree Star, Inc., Ashland, OR, USA).

[8] = K562, 24 h, Ima 1 μM, with z-VAD-fmk (50 μM)
[9] = K562, 24 h, A-1210477 10 μM, with z-VAD-fmk (50 μM)

Cc1ccc(NC(=O)c2ccc(CN3CCN(C)CC3)cc2)cc1Nc1nccc(-c2cccnc2)n1 [Ima, Imatinib, reference compound]
AnnV+/PI+ (%) (K562 cells [1]; K562, 24 h, Ima 1 μM): 6.97 ± 0.88% | AnnV+/PI− (%) (K562 cells [1]; K562, 24 h, Ima 1 μM): 37.77 ± 4.07% | Combined cell death (%) (K562 cells [1]; K562, 24 h, Ima 1 μM): 44.74 ± 21.78% | AnnV+/PI+ (%) (K562 cells [1]; [8]): 2.93 ± 0.15% | AnnV+/PI− (%) (K562 cells [1]; [8]): 10.86 ± 3.57% | Combined cell death (%) (K562 cells [1]; [8]): 13.79 ± 5.60% | AnnV+/PI+ (%) (K562 cells [1]; K562, Ima 1 μM (Figure 3B)): 31.27 ± 5.24% | AnnV+/PI− (%) (K562 cells [1]; K562, Ima 1 μM (Figure 3B)): 51.77 ± 2.29% | Combined cell death (%) (K562 cells [1]; K562, Ima 1 μM (Figure 3B)): 83.03 ± 14.50%

Cc1nn(C)c(COc2ccc(N3CCN(S(=O)(=O)N(C)C)CC3)cc2)c1-c1cccc2c(CCCOc3cccc4ccccc34)c(C(=O)O)n(CCN3CCOCC3)c12 [Compound A-1210477, reference compound]
viability at 10 µM (K562 cells [2]; Homo sapiens, K562, A-1210477 10 µM, 24 h): 79.3 ± 1.5% | viability at 20 µM (K562IR cells): 73 ± 3.6% | AnnV+/PI+ (%) (K562 cells [1]; K562, 24 h, A-1210477 10 μM): 4.73 ± 0.17% | AnnV+/PI− (%) (K562 cells [1]; K562, 24 h, A-1210477 10 μM): 9.31 ± 1.78% | Combined cell death (%) (K562 cells [1]; K562, 24 h, A-1210477 10 μM): 14.04 ± 3.24% | AnnV+/PI+ (%) (K562 cells [1]; [9]): 2.81 ± 0.21% | AnnV+/PI− (%) (K562 cells [1]; [9]): 6.04 ± 0.99% | Combined cell death (%) (K562 cells [1]; [9]): 8.85 ± 2.28% | apoptotic cell death (K562 cells [3]): about 14.5%

COc1ccc2c(c1)c(C(=O)C(=O)NNC(=O)CC#N)cn2Cc1ccc(Cl)cc1Cl [EE-92, N′-(2-Cyanoacetyl)-2-(1-(2,4-Dichlorobenzyl)-5-Methoxy-1H-Indol-3-yl)-2-Oxoacetohydrazide]
overall growth of K562 cells (K562 cells [4]): only weakly affected | viability of K562 cells (K562 cells [2]): only weakly affected | melting point: 242 to 244 °C

COc1ccc2c(c1)c(C(=O)C(=O)NNC(=O)CC#N)cn2Cc1ccccc1 [EE-80, 2-(1-Benzyl-5-Methoxy-1H-Indol-3-yl)-N′-(2-Cyanoacetyl)-2-Oxoacetohydrazide]
overall growth of K562 cells (K562 cells [4]): only weakly affected | viability of K562 cells (K562 cells [2]): only weakly affected | melting point: 199 to 201 °C

(Z)-5-((1H-Indol-3-yl)Methylene)-1,3-Dimethylimidazolidine-2,4-Dione [EE-115]
overall growth of K562 cells (K562 cells [4]): only weakly affected | GI50 (RPMI 1788 [5]; RPMI 1788, 24 h): > 50 µM | GI50 (RPMI 1788 [5]; RPMI 1788, 48 h): 30.4 ± 1.95 µM | GI50 (RPMI 1788 [5]; RPMI 1788, 72 h): 27.7 ± 2.3 µM | IC50 (RPMI 1788 [6]; RPMI 1788, 24 h): > 50 µM | IC50 (RPMI 1788 [6]; RPMI 1788, 48 h): > 50 µM | IC50 (RPMI 1788 [6]; RPMI 1788, 72 h): > 50 µM | viability of RPMI 1788 cells (RPMI 1788 [6]; up to 50 µM, Figure S4B): reduced the viability | viability of K562 cells (K562 cells [2]): only weakly affected | growth (relative body length) of zebrafish (zebrafish embryos; concentrations up to 100 µM): did not affect | survival rate of zebrafish (zebrafish embryos; concentrations up to 100 µM): did not affect | morphological changes of zebrafish (zebrafish embryos; embryos 24 hpf, different concentrations): No significant morphological changes

N#CCC(=O)NNC(=O)C(=O)c1cn(Cc2ccccc2)c2ccccc12 [EE-31, 2-(1-Benzyl-1H-Indol-3-yl)-N′-(2-Cyanoacetyl)-2-Oxoacetohydrazide]
overall growth of K562 cells (K562 cells [4]): only weakly affected | viability of K562 cells (K562 cells [2]): only weakly affected | melting point: 264 to 266 °C

Cc1ccc(-c2cc(C(F)(F)F)nn2-c2ccc(S(N)(=O)=O)cc2)cc1 [Celecoxib, reference compound]
G1 cell cycle phase (K562 cells [7]; K562, 48 h): 64.77 ± 3.09% | G2/M cell cycle phase (K562 cells [7]; K562, 48 h): 17.44 ± 2.13% | S cell cycle phase (K562 cells [7]; K562, 48 h): 15.00 ± 0.93% | Sub-G1 cell cycle phase (K562 cells [7]; K562, 48 h): 2.79 ±1.90% | G1 cell cycle phase (K562 cells [7]; K562, 72 h): 68.43 ± 4.67% | G2/M cell cycle phase (K562 cells [7]; K562, 72 h): 16.96 ± 3.04% | S cell cycle phase (K562 cells [7]; K562, 72 h): 11.20 ± 2.37% | Sub-G1 cell cycle phase (K562 cells [7]; K562, 72 h): 3.41 ± 2.04%
